According to ChEMBL document CHEMBL3885881, “DrugMatrix”:

Species on record: Rattus norvegicus
Assay: DrugMatrix - Regimen: Daily Repeat
Type: toxicity, organism-based, Sprague-Dawley
Design: regimen Daily Repeat, gender Male, age 6-8 weeks
Settings: in vivo, po, route oral GAVAGE, vehicle .5 % CMC; for ABSOLUTE BASOPHIL / ABSOLUTE EOSINOPHIL / ABSOLUTE LYMPHOCYTE / ABSOLUTE MONOCYTE / ABSOLUTE SEGMENTED NEUTROPHIL / BASOPHIL / EOSINOPHIL / ERYTHROCYTE COUNT / HEMATOCRIT / HEMOGLOBIN / LEUKOCYTE COUNT / LYMPHOCYTE / MEAN CORPUSCULAR HEMOGLOBIN / MEAN CORPUSCULAR HEMOGLOBIN CONCENTRATION / MEAN CORPUSCULAR VOLUME / MONOCYTE / NEUTROPHIL / NUCLEATED RED BLOOD CELLS / PLATELET COUNT: tissue Blood; for ALANINE AMINOTRANSFERASE / ALBUMIN / ALKALINE PHOSPHATASE / ASPARTATE AMINOTRANSFERASE / BLOOD UREA NITROGEN / CARBON DIOXIDE / CHLORIDE / CHOLESTEROL / CREATINE PHOSPHOKINASE / CREATININE / GLUCOSE / LACTATE DEHYDROGENASE / LIPASE / PHOSPHORUS / POTASSIUM / SODIUM / TOTAL BILIRUBIN / TOTAL PROTEIN / URIC ACID: tissue Plasma
[1] = 5 mg/kg, 72 h, dose level Low, time 3 day
[2] = 5 mg/kg, 120 h, dose level Low, time 5 day
[3] = 26 mg/kg, 72 h, dose level High, time 3 day
[4] = 26 mg/kg, 120 h, dose level High, time 5 day

With `Nc1nnc(-c2cccc(Cl)c2Cl)c(N)n1` [LAMOTRIGINE] the “ABSOLUTE BASOPHIL” value [1] was 0 CELLS/uL, the “ABSOLUTE EOSINOPHIL” value [1] was 0 CELLS/uL and the “ABSOLUTE LYMPHOCYTE” value [1] was 10899.33 CELLS/uL. For the same compound, the “ABSOLUTE MONOCYTE” value [1] was 45.33 CELLS/uL, the “ABSOLUTE SEGMENTED NEUTROPHIL” value [1] was 922 CELLS/uL and the BASOPHIL [1] was 0%. The EOSINOPHIL [1] was 0%, the “ERYTHROCYTE COUNT” value [1] was 5.73 x10E6/uL and the HEMATOCRIT [1] was 35.93%. For the same compound, the HEMOGLOBIN [1] was 13.53 G/DL, the “LEUKOCYTE COUNT” value [1] was 11.87 x10E3/uL and the LYMPHOCYTE [1] was 91.67%. For the same compound, the “MEAN CORPUSCULAR HEMOGLOBIN” value [1] was 23.7 pg, the “MEAN CORPUSCULAR HEMOGLOBIN CONCENTRATION” value [1] was 37.7 G/DL and the “MEAN CORPUSCULAR VOLUME” value [1] was 62.83 fL. For the same compound, the MONOCYTE [1] was 0.33%, the NEUTROPHIL [1] was 8% and the “NUCLEATED RED BLOOD CELLS” value [1] was 0.33 /100WBC. For the same compound, the “PLATELET COUNT” value [1] was 1386.33 x10E3/uL, the “ALANINE AMINOTRANSFERASE” value [1] was 59 u/L and the ALBUMIN [1] was 4.23 G/DL. The “ALKALINE PHOSPHATASE” value [1] was 377.33 u/L, the “ASPARTATE AMINOTRANSFERASE” value [1] was 90.67 u/L and the “BLOOD UREA NITROGEN” value [1] was 15 mg/dL. For the same compound, the “CARBON DIOXIDE” value [1] was 25.67 mmol/L, the CHLORIDE [1] was 103.33 MEQ/L and the CHOLESTEROL [1] was 73.33 mg/dL. For the same compound, the “CREATINE PHOSPHOKINASE” value [1] was 322.33 u/L, the CREATININE [1] was 0.43 mg/dL and the GLUCOSE [1] was 152 mg/dL. The “LACTATE DEHYDROGENASE” value [1] was 339.67 u/L, the LIPASE [1] was 10.33 u/L and the PHOSPHORUS [1] was 13.67 mg/dL. For the same compound, the POTASSIUM [1] was 6.72 MEQ/L, the SODIUM [1] was 145.9 MEQ/L and the “TOTAL BILIRUBIN” value [1] was 0.2 mg/dL. For the same compound, the “TOTAL PROTEIN” value [1] was 5.77 G/DL, the “URIC ACID” value [1] was 1.6 mg/dL and the “ABSOLUTE BASOPHIL” value [2] was 0 CELLS/uL. The “ABSOLUTE EOSINOPHIL” value [2] was 56.33 CELLS/uL, the “ABSOLUTE LYMPHOCYTE” value [2] was 12053 CELLS/uL and the “ABSOLUTE MONOCYTE” value [2] was 415 CELLS/uL. For the same compound, the “ABSOLUTE SEGMENTED NEUTROPHIL” value [2] was 1309 CELLS/uL, the BASOPHIL [2] was 0% and the EOSINOPHIL [2] was 0.33%. For the same compound, the “ERYTHROCYTE COUNT” value [2] was 5.33 x10E6/uL, the HEMATOCRIT [2] was 35.73% and the HEMOGLOBIN [2] was 13.3 G/DL. The “LEUKOCYTE COUNT” value [2] was 13.83 x10E3/uL, the LYMPHOCYTE [2] was 87% and the “MEAN CORPUSCULAR HEMOGLOBIN” value [2] was 25 pg. For the same compound, the “MEAN CORPUSCULAR HEMOGLOBIN CONCENTRATION” value [2] was 37.23 G/DL, the “MEAN CORPUSCULAR VOLUME” value [2] was 67.17 fL and the MONOCYTE [2] was 3%. For the same compound, the NEUTROPHIL [2] was 9.67%, the “NUCLEATED RED BLOOD CELLS” value [2] was 0 /100WBC and the “PLATELET COUNT” value [2] was 1207 x10E3/uL. For the same compound, the “ALANINE AMINOTRANSFERASE” value [2] was 54.33 u/L, the ALBUMIN [2] was 4.4 G/DL and the “ALKALINE PHOSPHATASE” value [2] was 422.67 u/L. For the same compound, the “ASPARTATE AMINOTRANSFERASE” value [2] was 86.33 u/L, the “BLOOD UREA NITROGEN” value [2] was 16.67 mg/dL and the “CARBON DIOXIDE” value [2] was 23 mmol/L. For the same compound, the CHLORIDE [2] was 104 MEQ/L, the CHOLESTEROL [2] was 71.67 mg/dL and the “CREATINE PHOSPHOKINASE” value [2] was 218.33 u/L. The CREATININE [2] was 0.41 mg/dL, the GLUCOSE [2] was 152.67 mg/dL and the “LACTATE DEHYDROGENASE” value [2] was 99.67 u/L. For the same compound, the LIPASE [2] was 10.33 u/L, the PHOSPHORUS [2] was 12.27 mg/dL and the POTASSIUM [2] was 6.44 MEQ/L. For the same compound, the SODIUM [2] was 149.03 MEQ/L, the “TOTAL BILIRUBIN” value [2] was 0.17 mg/dL and the “TOTAL PROTEIN” value [2] was 6.17 G/DL. For the same compound, the “URIC ACID” value [2] was 1.8 mg/dL, the “ABSOLUTE BASOPHIL” value [3] was 0 CELLS/uL and the “ABSOLUTE EOSINOPHIL” value [3] was 0 CELLS/uL. For the same compound, the “ABSOLUTE LYMPHOCYTE” value [3] was 13769 CELLS/uL, the “ABSOLUTE MONOCYTE” value [3] was 39.33 CELLS/uL and the “ABSOLUTE SEGMENTED NEUTROPHIL” value [3] was 558.33 CELLS/uL. For the same compound, the BASOPHIL [3] was 0%, the EOSINOPHIL [3] was 0% and the “ERYTHROCYTE COUNT” value [3] was 5.86 x10E6/uL. For the same compound, the HEMATOCRIT [3] was 39.23%, the HEMOGLOBIN [3] was 14.47 G/DL and the “LEUKOCYTE COUNT” value [3] was 14.37 x10E3/uL. For the same compound, the LYMPHOCYTE [3] was 95.67%, the “MEAN CORPUSCULAR HEMOGLOBIN” value [3] was 24.67 pg and the “MEAN CORPUSCULAR HEMOGLOBIN CONCENTRATION” value [3] was 36.9 G/DL. For the same compound, the “MEAN CORPUSCULAR VOLUME” value [3] was 66.93 fL, the MONOCYTE [3] was 0.33% and the NEUTROPHIL [3] was 4%. The “NUCLEATED RED BLOOD CELLS” value [3] was 0.33 /100WBC, the “PLATELET COUNT” value [3] was 1200 x10E3/uL and the “ALANINE AMINOTRANSFERASE” value [3] was 73 u/L. For the same compound, the ALBUMIN [3] was 4.6 G/DL, the “ALKALINE PHOSPHATASE” value [3] was 355.33 u/L and the “ASPARTATE AMINOTRANSFERASE” value [3] was 139.67 u/L. The “BLOOD UREA NITROGEN” value [3] was 13 mg/dL, the “CARBON DIOXIDE” value [3] was 24.67 mmol/L and the CHLORIDE [3] was 102 MEQ/L. For the same compound, the CHOLESTEROL [3] was 91 mg/dL, the “CREATINE PHOSPHOKINASE” value [3] was 1448.33 u/L and the CREATININE [3] was 0.29 mg/dL. The GLUCOSE [3] was 138 mg/dL, the “LACTATE DEHYDROGENASE” value [3] was 373.67 u/L and the LIPASE [3] was 10.33 u/L. For the same compound, the PHOSPHORUS [3] was 13.67 mg/dL, the POTASSIUM [3] was 7.33 MEQ/L and the SODIUM [3] was 146.47 MEQ/L. For the same compound, the “TOTAL BILIRUBIN” value [3] was 0.2 mg/dL, the “TOTAL PROTEIN” value [3] was 6.5 G/DL and the “URIC ACID” value [3] was 3 mg/dL. For the same compound, the “ABSOLUTE BASOPHIL” value [4] was 0 CELLS/uL, the “ABSOLUTE EOSINOPHIL” value [4] was 0 CELLS/uL and the “ABSOLUTE LYMPHOCYTE” value [4] was 13660 CELLS/uL. The “ABSOLUTE MONOCYTE” value [4] was 181.67 CELLS/uL, the “ABSOLUTE SEGMENTED NEUTROPHIL” value [4] was 558.33 CELLS/uL and the BASOPHIL [4] was 0%. For the same compound, the EOSINOPHIL [4] was 0%, the “ERYTHROCYTE COUNT” value [4] was 5.81 x10E6/uL and the HEMATOCRIT [4] was 37.13%. For the same compound, the HEMOGLOBIN [4] was 14.03 G/DL, the “LEUKOCYTE COUNT” value [4] was 14.4 x10E3/uL and the LYMPHOCYTE [4] was 95%. The “MEAN CORPUSCULAR HEMOGLOBIN” value [4] was 24.17 pg, the “MEAN CORPUSCULAR HEMOGLOBIN CONCENTRATION” value [4] was 37.8 G/DL and the “MEAN CORPUSCULAR VOLUME” value [4] was 63.93 fL. The MONOCYTE [4] was 1.33%, the NEUTROPHIL [4] was 3.67% and the “NUCLEATED RED BLOOD CELLS” value [4] was 0.33 /100WBC. For the same compound, the “PLATELET COUNT” value [4] was 1279.33 x10E3/uL, the “ALANINE AMINOTRANSFERASE” value [4] was 64.67 u/L and the ALBUMIN [4] was 4.4 G/DL. For the same compound, the “ALKALINE PHOSPHATASE” value [4] was 331.33 u/L, the “ASPARTATE AMINOTRANSFERASE” value [4] was 78 u/L and the “BLOOD UREA NITROGEN” value [4] was 18.67 mg/dL. The “CARBON DIOXIDE” value [4] was 27.67 mmol/L, the CHLORIDE [4] was 103 MEQ/L and the CHOLESTEROL [4] was 75.67 mg/dL. For the same compound, the “CREATINE PHOSPHOKINASE” value [4] was 225 u/L, the CREATININE [4] was 0.28 mg/dL and the GLUCOSE [4] was 163 mg/dL. For the same compound, the “LACTATE DEHYDROGENASE” value [4] was 110.33 u/L, the LIPASE [4] was 10.67 u/L and the PHOSPHORUS [4] was 12.43 mg/dL. The POTASSIUM [4] was 7.41 MEQ/L, the SODIUM [4] was 147.97 MEQ/L and the “TOTAL BILIRUBIN” value [4] was 0.2 mg/dL. The “TOTAL PROTEIN” value [4] was 6.2 G/DL and the “URIC ACID” value [4] was 2.03 mg/dL.
